# Source: ChEMBL document CHEMBL3832761, “MMV Pathogen Box Bioactivity Data” (2017)
# Calls of active or inactive are those of the source. The calls are words filed in the database; no cut-off is given here.
# Legend:
# Schistosoma mansoni [1] = assay: AntiSchistosoma mansoni activity Newly Transformed Schistosomula: inhibition at 10 uM at 72h (%); type: functional
# Schistosoma mansoni [2] = assay: AntiSchistosoma mansoni activity Adults: Effect at 10 uM after 48h; type: functional, organism-based
# HepG2 = assay: Cytotoxicity data HepG2 CC20 (uM); type: functional
# Schistosoma mansoni [3] = assay: AntiSchistosoma mansoni activity Newly Transformed Schistosomula: IC50 at 72h (uM); type: functional, organism-based
# Cryptosporidium parvum [4] = assay: AntiCryptosporidium parvum activity Compounds added at t0, IC 50 (uM); type: functional, organism-based
# Toxoplasma gondii [5] = assay: AntiToxoplasma gondii activity data 2-day killing assay: inhibition at 10 uM (%) Experiment E; type: functional
# [6] = HL60 CC50 (uM) Cytotoxicity; type: functional; conditions: HL-60
# Toxoplasma gondii [7] = assay: AntiToxoplasma gondii activity data Inhibition of plaque forming efficiency (%) Experiment A; type: functional; parameters: concentration or dose not given beside the values
# Toxoplasma gondii [8] = assay: AntiToxoplasma gondii activity data 2-day killing assay: IC50 (uM), Experiment G; type: functional, organism-based
# Toxoplasma gondii [9] = assay: AntiToxoplasma gondii activity data 2-day killing assay: inhibition at 10 uM (%) Experiment D; type: functional
# Toxoplasma gondii [10] = assay: AntiToxoplasma gondii activity data 2-day killing assay: inhibition at 10 uM (%) Experiment C; type: functional; conditions: 48 h
# Toxoplasma gondii [11] = assay: AntiToxoplasma gondii activity data 2-day killing assay: IC50 (uM), Experiment F; type: functional, organism-based; conditions: Toxoplasma gondii, 48 h; read-out: IC50
# Schistosoma mansoni [12] = assay: AntiSchistosoma mansoni activity Adults IC50 (uM); type: functional, organism-based
# MRC5 = assay: MRC5 CC50 (uM) Cytotoxicity; type: functional; conditions: Homo sapiens
# Schistosoma mansoni [13] = assay: AntiSchistosoma mansoni activity Juveniles IC50 (uM); type: functional, organism-based
# Cryptosporidium parvum [14] = assay: AntiCryptosporidium parvum activity Compounds added 3h after t0, IC 50 (uM); type: functional, organism-based
# Onchocerca ochengi [15] = assay: AntiOnchocerca activity O. ochengi adult females: final mean inhibition motility at 10 uM on Day 7 (%); type: functional
# Onchocerca gutturosa [16] = assay: AntiOnchocerca activity O. gutturosa adult males: MTT reduction at 12.5 uM (%); type: functional; parameters: scale not given: the % may be the effect or the level left
# Onchocerca ochengi [17] = assay: AntiOnchocerca activity O. ochengi adult males: final mean inhibition motility at 10 uM on Day 5 (%); type: functional
# Onchocerca gutturosa [18] = assay: AntiOnchocerca activity O. gutturosa adult males: Motility reduction at 12.5 uM (%); type: functional; parameters: scale not given: the % may be the effect or the level left
# Onchocerca lienalis = assay: AntiOnchocerca activity O. lienalis microfilariae Motility reduction (%); type: functional; parameters: concentration or dose not given beside the values
# Brugia pahangi = assay: AntiBrugia pahangi activity Average inhibition motility at 10 uM (%); type: functional
# Onchocerca volvulus = assay: AntiOnchocerca activity O. volvulus L3 Molting assay: inhibition at 10 uM (%); type: functional
# Schistosoma mansoni [19] = assay: AntiSchistosoma mansoni activity Larva IC50 (uM); type: functional, organism-based
smiles,measurement,setting,value
Cn1ncc2c(N3CCOCC3)nc(NCCc3c[nH]c4ccccc34)nc21 [TDR79432],Inhibition,Schistosoma mansoni [1],88%
same,Activity,Schistosoma mansoni [2],Active
same,CC20,HepG2,4.63 µM
same,IC50,Schistosoma mansoni [3],0.43 µM
CCOc1ccc2cc(-c3nn(CC4CCN(C)CC4)c4ncnc(N)c34)ccc2c1,IC50,Cryptosporidium parvum [4],0.05 µM
Cc1cc(NC(=O)c2ccc(Oc3ccc(Cl)cc3O)o2)no1,Inhibition,Toxoplasma gondii [5],22%
same,CC50,[6],> 50 µM
same,Inhibition,Toxoplasma gondii [7],~85%
same,IC50,Toxoplasma gondii [8],no inhibition
same,Inhibition,Toxoplasma gondii [9],64.8%
same,inhibition at 10 µM,Toxoplasma gondii [10],70%
same,IC50,Toxoplasma gondii [11],7.32 µM
Cc1[nH]c2ccccc2c1C(c1cccs1)N1CCN(C)CC1 (centres undefined),Inhibition,Schistosoma mansoni [1],100%
same,CC20,HepG2,8.46 µM
same,IC50,Schistosoma mansoni [12],7.2 µM
same,CC50,MRC5,> 20 µM
same,IC50,Schistosoma mansoni [3],0.29 µM
same,IC50,Schistosoma mansoni [13],3.8 µM
CS(=O)(=O)N1CCC(Cn2nc(Cc3cccc4ccccc34)c3c(N)ncnc32)CC1,IC50,Cryptosporidium parvum [14],> 10 µM
same,CC50,[6],47.3 µM
same,CC20,HepG2,53 µM
same,IC50,Cryptosporidium parvum [4],0.1 µM
CNc1nnc(Sc2cnn(-c3ccccc3)c(=O)c2Cl)s1,Inhibition,Schistosoma mansoni [1],100%
same,CC20,HepG2,1.55 µM
same,IC50,Schistosoma mansoni [3],0.15 µM
same,IC50,Schistosoma mansoni [13],3.7 µM
CC(C)C(Oc1cccc2ccccc12)C(=O)O (centres undefined),IC50,Cryptosporidium parvum [14],> 10 µM
same,CC50,[6],> 50 µM
same,CC20,HepG2,>80 µM
same,IC50,Cryptosporidium parvum [4],> 10 µM
Nc1ncnc2[nH]nc(Cc3cccc4ccccc34)c12,Inhibition,Toxoplasma gondii [5],63.3%
same,CC50,[6],> 25 µM
same,Inhibition,Toxoplasma gondii [7],100%
same,IC50,"Toxoplasma gondii [8]; Toxoplasma gondii, 48 h, read-out: IC50",3.05 µM
same,Inhibition,Toxoplasma gondii [9],89.2%
same,inhibition at 10 µM,Toxoplasma gondii [10],54.7%
same,IC50,Toxoplasma gondii [11],2.31 µM
O=C(OCc1ccccc1)N1CCC(c2cc(-c3ccncc3)c(-c3ccc(F)cc3)[nH]2)CC1,Inhibition,Toxoplasma gondii [5],99.1%
same,CC50,[6],> 50 µM
same,Inhibition,Toxoplasma gondii [7],~75%
same,Inhibition,Toxoplasma gondii [9],76.8%
same,inhibition at 10 µM,Toxoplasma gondii [10],77%
same,IC50,Toxoplasma gondii [11],0.87 µM
CC(C)(C)c1ccc(N[C@@H]2CCCC[C@H]2NC(=O)c2ccco2)cc1,Inhibition,Onchocerca ochengi [15],0%
same,CC50,[6],> 50 µM
same,Activity,Onchocerca gutturosa [16],37.7%
same,CC20,HepG2,35.9 µM
same,Inhibition,Onchocerca ochengi [17],1%
same,Activity,Onchocerca gutturosa [18],50%
same,Activity,Onchocerca lienalis,13.3%
same,Inhibition,Brugia pahangi,3%
same,Inhibition,Onchocerca volvulus,80%
Cc1nn(C(=O)Nc2cccc(C(F)(F)F)c2)c(C)c1Sc1ncccn1,Inhibition,Schistosoma mansoni [1],33.3%
same,Activity,Schistosoma mansoni [2],Active
same,CC20,HepG2,30.7 µM
same,IC50,Schistosoma mansoni [12],2 µM
same,IC50,Schistosoma mansoni [13],4.05 µM
Nc1ncnc2c1c(Cc1cccc3ccccc13)nn2CC1CCNCC1,IC50,Cryptosporidium parvum [14],25.9 µM
same,CC50,[6],> 50 µM
same,CC20,HepG2,>80 µM
same,IC50,Cryptosporidium parvum [4],0.5 µM
O=C(c1ccc(F)cc1)N(CCNc1ccccc1)c1ccccc1,Inhibition,Onchocerca ochengi [15],0%
same,CC50,[6],> 50 µM
same,Activity,Onchocerca gutturosa [16],0%
same,CC20,HepG2,18.5 µM
same,Inhibition,Onchocerca ochengi [17],0%
same,Activity,Onchocerca gutturosa [18],28.6%
same,Activity,Onchocerca lienalis,13.3%
same,Inhibition,Brugia pahangi,17%
same,Inhibition,Onchocerca volvulus,89%
Nc1ncc(-c2ccc(C(F)(F)F)nc2)cc1-c1ccc(C(F)(F)F)nc1,CC20,HepG2,>80 µM
same,Activity,Onchocerca lienalis,93%
COc1cc(NC(=O)Cc2nn(C)c(=O)c3ccccc23)ccc1Cl,IC50,Cryptosporidium parvum [14],0.68 µM
same,CC50,[6],> 50 µM
same,CC20,HepG2,>80 µM
same,IC50,Cryptosporidium parvum [4],< 0.1 µM
Nc1nc(N)c2c3c(sc2n1)CN(Cc1ccccc1)CC3,Inhibition,Toxoplasma gondii [5],81.6%
same,CC50,[6],> 50 µM
same,Inhibition,Toxoplasma gondii [7],100%
same,IC50,Toxoplasma gondii [8],no inhibition
same,Inhibition,Toxoplasma gondii [9],83.2%
same,inhibition at 10 µM,Toxoplasma gondii [10],54.2%
same,IC50,Toxoplasma gondii [11],7.06 µM
COc1ccc(-c2nn(C(C)C)c3ncnc(N)c23)cc1OC,IC50,Cryptosporidium parvum [14],13.9 µM
same,CC50,[6],25.1 µM
same,CC20,HepG2,1.63 µM
same,IC50,Cryptosporidium parvum [4],0.5 µM
c1ccc(Oc2ccc(-c3cncc(-c4ccc5[nH]ccc5c4)n3)cc2)cc1,Inhibition,Schistosoma mansoni [1],100%
same,Activity,Schistosoma mansoni [2],Active
same,CC20,HepG2,25.7 µM
same,IC50,Schistosoma mansoni [12],3.7 µM
same,CC50,MRC5,20 µM
same,IC50,Schistosoma mansoni [19],1.4 µM
same,IC50,Schistosoma mansoni [3],0.27 µM
same,IC50,Schistosoma mansoni [13],2.1 µM
COc1ccc(N(CCc2cccc(C)n2)C(C)=O)cc1,Inhibition,Onchocerca ochengi [15],0%
same,CC50,[6],> 50 µM
same,Activity,Onchocerca gutturosa [16],29.6%
same,CC20,HepG2,>80 µM
same,Inhibition,Onchocerca ochengi [17],6%
same,Activity,Onchocerca gutturosa [18],35.7%
same,Activity,Onchocerca lienalis,13.3%
same,Inhibition,Brugia pahangi,6%
same,Inhibition,Onchocerca volvulus,88%
